Results taken from patent US20230220047A1, “PEPTIDES FOR TREATMENT OF SEPSIS AND CANCER” (NORWEGIAN UNIVERSITY OF SCIENCE AND TECHNOLOGY (NTNU), priority 2020, published 2023).

Test system: TLR4
Assay: Western blot of LPS signalling in THP-1 cells and primary human monocytes
Format: cell-based
Settings: data not shown
Experimental: Protein pellets were dissolved by heating protein pellets for 10 min at 95° C. in buffer containing 4 M urea, 1 SDS (Sigma) and NuPAGE® LDS Sample Buffer (4×) (Thermo Fisher Scientific). Otherwise, lysates were made using 1× RIPA lysis buffer (150 mM NaCl, 50 mM TrisHCl (pH 7.5), 1% Triton X100, 5 mM EDTA, protease inhibitors, phosphatase inhibitors). For Western blot analysis we used pre-cast protein gels NuPAGE™ Novex™ and iBlot Transfer Stacks iBlot Gel Transfer Device (Thermo Fisher Scientific). Proteins were transferred to the membrane by dry-blotting using iBlot® 2 NC Regular/Mini Stacks (Life Technologies) in the iBlot 2 Dry Blotting System (Life Technologies). After secondary antibody incubation, membranes were washed and incubated with HRP substrate solution (SuperSignal™ West Femto Maximum Sensitivity Substrate (Thermo Fisher Scientific)). Images were taken using Odyssey® Fc (LI-CORE). Quantification graphs were generated by the analysis of signal intensities for protein bands (protein of interest and endogenous loading control—β-tubulin from the same membrane) using Odyssey software (LI-CORE). Data were normalised to the expression levels of β-tubulin and presented as a relative fold change to the control sample.
Further, we tested the effect of P7-Pen on phosphorylation of p38 MAPK, IκBα degradation and modification of IRAK1 in human macrophages (THP-1 cells) and primary human monocytes. P7-Pen inhibited LPS-mediated phosphorylation of p38 MAPK (FIG. 24A) and inhibited IRAK1 ubiquitination/phosphorylation (visualised as band shift to higher molecular weight) in primary monocytes (FIG. 24B).

Substance | pattern of inhibition of p38 MAPK phosphorylation and IRAK1 modification as seen with P7-Pen
IATYASTALTGRQIKIWFQNRRMKWKK (Ac-IATYASTALTGRQIKIWFQNRRMKWKK-NH2) [Peptide P7C3-Pen, control peptide] | not

Test system: ANBL-6 multiple myeloma cells
Assay: CellTiter-Glo cell viability assay, ANBL-6
Format: cell-based
Settings: 15 μM
Experimental: Minor effects on the proliferation of the IH-1 and RPMI 8226 cell lines are seen. Cells were seeded at the level shown (left-hand bar of each set) then incubated in medium containing water, 10 μM penetratin or 10 μM P7-A4-Pen for 48 hr (except for INA-6 cells, which were incubated with 12.5 μM penetratin or 12.5 μM P7-A4-Pen). The number of viable cells was detected based on quantitation of ATP by luminescent signal in correlation to a standard curve prepared for each cell line. Results are based on 3-5 biological replicates for each condition, error bars show standard deviation of mean.
Cells were seeded and then incubated in growth medium alone or supplemented with water, DMSO, 15 μM penetratin or 15 μM investigational peptide. The growth medium only and H2O—, DMSO- and penetratin-supplemented cultures constituted controls.
The solid horizontal lines show the amount of cells originally seeded. In (A) ANBL-6 cells were seeded at a level of 10,000 cells/well, then incubated in medium supplemented with water, the control peptide C3A-Pen, P7-Pen, P7-A4-Pen, P7-N4-Pen or P7-K2-Pen for 48 hours. The peptides were included at concentrations of 5, 10, 12.5, 15, 20 or 30 μM. Cells were counted at 48 hours. In (B), ANBL-6 cells were seeded at a level of 5000 cells/well, then incubated in medium supplemented with water, P6-Pen, P-P6-Pen, P7-D4-Pen or P7-A4-Pen for 48 hours. Peptides were included at concentrations of 5, 10 or 20 μM. Cells were counted at 48 hours. […] Results are based on 3 biological replicates, error bars show standard deviation of mean.
Multiple myeloma cells JJN-3 (DSMZ (Germany) no. ACC 541), ANBL-6 (Cellosaurus accession number CVCL_5425, obtained from Dr Diane Jelinek, Mayo Clinic, Rochester, Minn.), INA-6 (Cellosaurus accession number CVCL_5209, obtained from Dr M. Gramatzki, University of Erlangen-Nurnberg, Erlangen, Germany), RPMI-8226 (ATCC CCL-155), and IH-1 (Cellosaurus accession number CVCL_WZ44, established from the pleural effusion of a myeloma patient by Myeloma research group, IKOM, NTNU, Trondheim, Norway) were grown in RPMI-1640 (Sigma-Aldrich Norway, Oslo, Norway) supplemented with 100 nM penicillin/streptomycin and 10% FCS, and for ANBL-6, IH-1 and INA-6 cells 2 ng/ml recombinant IL-6 (Gibco, Thermo Fisher Scientific, Waltham, Mass., USA). Murine multiple myeloma Vk*MYC cells were obtained from M.D. Leif Bergsagel (Mayo Clinic, Richester, Minn., USA) and cultured in RPMI-1640 supplemented with 2% human serum (B^+, The blood bank, St Olav's Hospital, Trondheim, Norway), 100 nM penicillin/streptomycin, L-Glutamine (2 mM) and recombinant IL-6 (1 ng/ml). HEK293T (ATCC CRL-3216) were cultured in DMEM with 10% FCS. THP-1 TRAM knockout (KO) and TLR4 KO cell lines, and matching lentivirally transduced control cell lines, were differentiated in the same way as wild type (WT) THP-1. TRAM KO THP-1 cell line is described in Yurchenko et al. (supra).
To evaluate the potential impact of the P7 peptide on proliferation of tumour cells of lymphoid origin, we performed a CellTiter-Glo Luminescent Cell Viability Assay to address proliferation of several multiple myeloma (MM) cell lines. For the assay, cells were incubated for 48 h in respective media containing either solvent (water), 10 μM control peptide (Pen) or the SLAMF1-derived peptide P7-A4-Pen for 48 h (FIG. 32) (with the exception of the INA-6 cells which were incubated with 12.5 μM control peptide or P7-A4-Pen). […] This effect could be mediated by P7-A4-Pen-induced inhibition of signalling pathways that are crucial for driving proliferation and/or survival of MM tumour cells.

Substance | effect on proliferation of ANBL-6 cells
Ac-IKVYASVTLTGRQIKIWFQNRRMKWKK-NH2 [Peptide P7-K2-Pen] | anti-proliferative effect
Ac-ITVDASVTLTGRQIKIWFQNRRMKWKK-NH2 [Peptide P7-D4-Pen] | anti-proliferative effect
ITVSASVTLTGRQIKIWFQNRRMKWKK (Ac-ITVSASVTLTGRQIKIWFQNRRMKWKK-NH2) [Peptide P7-S4-Pen] | anti-proliferative effect

Same assay, conditions: 5, 10, 12.5, 15, 20 and 30 μM or 5, 10 and 20 μM, 48 h

Substance | anti-proliferative activity over a concentration series
Ac-IKVYASVTLTGRQIKIWFQNRRMKWKK-NH2 [Peptide P7-K2-Pen] | clear concentration-dependent effect
Ac-ITVDASVTLTGRQIKIWFQNRRMKWKK-NH2 [Peptide P7-D4-Pen] | clear concentration-dependent effect
IATYASVTLTGRQIKIWFQNRRMKWKK (Ac-IATYASVTLTGRQIKIWFQNRRMKWKK-NH2) [Peptide P7C3A-Pen, control peptide] | essentially no anti-proliferative effect

Test system: TLR4
Assay: qPCR of LPS-mediated cytokine mRNA expression in THP-1 macrophages
Format: cell-based, human
Settings: control/decoy peptide (data not shown)
Experimental: SW480 (ATCC CCL-228) and Jurkat (ATCC Clone E6-1; TIB-152) cells were cultured in RPMI 1640 (Sigma-Aldrich, Schnelldorf, Germany) supplemented with 10% heat-inactivated FCS, penicillin/streptomycin (Life Technologies) and 20 mM L-Glutamine. THP-1 cells (ATCC TIB-202) were cultured in RPMI-1640 (high-glucose, ATCC) supplemented with 10% heat inactivated foetal calf serum (FCS), 100 nM penicillin/streptomycin and 5 μM β-mercaptoethanol (Sigma). THP-1 cells were differentiated with 60 ng/ml phorbol 12-myristate 13-acetate (PMA, Sigma) for 72 h, followed by 24 or 48 h in medium without PMA.
Total RNA was isolated from the cells using Qiazol reagent #79306 from QIAGEN, and chloroform extraction followed by purification on RNeasy Mini columns with DNAse digestion (Qiagen). cDNA was prepared using the Maxima First Strand cDNA Synthesis Kit for quantitative real-time polymerase chain reaction (RT-qPCR) (Thermo Fisher Scientific) according to the manufacturer's protocol. qPCR was performed using the PerfeCTa qPCR FastMix (Quanta Biosciences) in replicates and cycled in a StepOnePlus™ Real-Time PCR cycler. The following TaqMan® Gene Expression Assays (Applied Biosystems®) were used: IFNβ (Hs01077958_s1), TNF (Hs00174128_m1), TBP (Hs00427620_m1), CXCL10 (Hs01124251_g1), IL-6 (Hs00174131_m1) and IL-1β (Hs01555410_m1), for human cells; Ifnβ (Mm00439552_s1), Tnf (Mm00443258_m1), Tbp (Mm01277042_m1) and II-1β (Mm00434228_m1), for mouse cells. No RT controls were negative. The level of TBP mRNA was used for normalisation and results presented as relative expression compared to the control untreated sample. Relative expression was calculated using Pfaffl's mathematical model (Pfaffl, Nucleic Acids Research 29(9): e45, 2001). Results are presented as the mean and SD expression fold change for biological replicates relative to non-stimulated cells. Statistical significance was evaluated in GraphPad Prizm 5.03. Data distribution was assumed to be normal but this was not formally tested. The difference between the two groups was determined by two-tailed t test.

Substance | LPS- or E. coli particle-induced expression of IFNβ, CXCL10 and TNF
IATYASTALTGRRRRRRRRRRR (Ac-IATYASTALTGRRRRRRRRRRR-NH2) [Peptide P7C3-Arg11, control/decoy peptide] | no effect

Test system: THP-1 cells
Assay: LDH cytotoxicity assay in THP-1 cells
Settings: CPP screen, 15 μM, 30 min pre-treatment, LPS 100 ng/ml
Experimental: For every assay, separate wells were seeded for the required controls (Spontaneous LDH Release Controls and Maximum LDH Release Control) with the same amount of cells as used for peptide treatments. All supernatants were analysed in triplicate with the average value of technical replicates taken into calculations.
THP-1 cells were pre-treated with increasing concentrations of P7-Arg11 and control peptide Arg11 for 1 h (FIG. 3).

Substance | reduction of LPS-mediated toxicity (LDH assay)
Ac-ITVYASVTLTGRRRRRRR-NH2 [Peptide P7-Arg7, ITVYASVTLTGRRRRRRR] | some decrease
Ac-ITVYASVTLTGRRRRRRRRR-NH2 [Peptide P7-Arg9] | some decrease
Ac-RRRRRRRRRRRGITVYASVTLT-NH2 [Arg11-P7] | some decrease

Test system: TLR4
Assay: ELISA/Bioplex of LPS-mediated cytokine secretion by THP-1 cells
Format: cell-based, human
Settings: 15 μM, 30 min pre-treatment, LPS 100 ng/ml 5 h; relative to P7-Pen
Experimental: (A) Results of LDH assay and ELISAs analysing cytokine secretion after 5 h of stimulation with LPS (graphs show mean values for at least 3 biological replicates). […] In the tables average values are presented based on 3-5 biological replicates for each experiment. […]
TNF in supernatants was detected using a human TNF-alpha DuoSet ELISA (DY210) (R&D Systems); CXCL10 using a DuoSet ELISA (DY266) (R&D Systems); IL-1β using a BD OptEiA human IL-1β ELISA SetII (#557953, BD Biosciences): IFNβ using a VeriKine-HS™ Human Interferon-Beta Serum ELISA Kit (#41415) from PBL Assay Science. Some supernatants were also analysed by multiplex cytokine assay (Bio-Plex; Bio-Rad Laboratories Inc.) for IL-1β, IL-6, IL-8, CXCL10/IP-10. Results are presented as mean and SD for biological replicates for a representative donor (primary human macrophages), or at least three independent experiments for the model cell line THP-1. Statistical significance was evaluated in GraphPad Prizm 5.03. Data distribution was assumed to be normal but this was not formally tested. The difference between the two groups was determined by two-tailed t test.

Substance | inhibitory activity towards LPS-induced CXCL10, TNF and IL-1β secretion (ELISA)
ATVYASVTLTGRQIKIWFQNRRMKWKK (P7-A1-Pen) [Peptide P7-A1-Pen] | totally abrogated activity
Ac-ITVYASVTLDGRQIKIWFQNRRMKWKK-NH2 [Peptide P7-D10-Pen] | high levels of activity
Ac-ITVYASVTLGGRQIKIWFQNRRMKWKK-NH2 [Peptide P7-G10-Pen] | high levels of activity
ITLYASVTLTGRQIKIWFQNRRMKWKK (Ac-ITLYASVTLTGRQIKIWFQNRRMKWKK-NH2) [Peptide P7-L3-Pen] | only partially decreased
ITVYASVTLPAGRQIKIWFQNRRMKWKK (P10-A11-Pen) [P10-Ala11-Pen] | totally abrogated
ITVYASVTLPEGRQIKIWFQNRRMKWKK (Ac-ITVYASVTLPEGRQIKIWFQNRRMKWKK-NH2) [Peptide P10-Pen] | totally abrogated
ITVYASVTLTAGRQIKIWFQNRRMKWKK (P11-A11-Pen) [P11-Ala11-Pen] | totally abrogated
ITVYASVTLTEGRQIKIWFQNRRMKWKK (P11-Pen) [Peptide P11-Pen] | totally abrogated
NSITVYASVTLTGRQIKIWFQNRRMKWKK (P3sh2-Pen) [Peptide P3sh2-Pen] | did not cause loss of inhibitory activity
TNSITVYASVTLTGRQIKIWFQNRRMKWKK (P3sh1-Pen) [Peptide P3sh1-Pen] | did not cause loss of inhibitory activity
